This is an account of results in patent US6635642B1, “PARP inhibitors, pharmaceutical compositions comprising same, and methods of using same” (Guilford Pharmaceuticals Inc., priority 1997, dated 2003).

For assay [1], the target named is T1, purified recombinant human PARP (Homo sapiens, UniProt P09874).
T1 construct: purchased Trevigen (Gaithersburg, Md.)
The experiment in a line: PARP enzyme assay ([3H]NAD incorporation, scintillation counting). The assay is classed as biochemical. The protocol: The reaction was initiated by incubating the mixture at 25° C. After 15 minutes' incubation, the reaction was terminated by adding 500 microliters of ice cold 20% (w/v) trichloroacetic acid. The precipitate formed was transferred onto a glass fiber filter (Packard Unifilter-GF/B) and washed three times with ethanol. After the filter was dried, the radioactivity was determined by scintillation counting.

The test system of assay [2] is rabbits. Conditions: cited from earlier work.
Assay [3] deals with human fibroblast cells lines (either W138 or BJ cells). The experiment in a line: Extending proliferative capacity and lifespan of cells. The class given is cell-based. As to conditions: untreated cells stop dividing after about 40 days. As to the method:
At the time of subdivision, the media is aspirated, and the cells rinsed with phosphate buffer saline (PBS) and then trypsinized. The cells are counted with a Coulter counter and plated at a density of 10^5 cells per cm^2 in 6-well tissue culture plates in DMEM/199 medium supplemented with 10% bovine calf serum and varying amounts (0.10 uM, and 1 mM: from a 100×stock solution in DMEM/M199 medium) of a PARP inhibitor of Formula I as disclosed herein. This process is repeated every 7 days until the cell appear to stop dividing. The untreated (control) cells reach senescence and stop dividing after about 40 days in culture. […] The cells treated with 1 mM 3-AB will still divide after 60 days in culture.

Assay [4] has as its system rats. As to conditions: trinitrobenzene sulfonic acid in 50% ethanol; cited from earlier work.
Assay [5] concerns male Long-Evans rats. Kind of assay: Focal cerebral ischemia (right distal MCA cauterization with bilateral temporary CCA occlusion), infarct volume by TTC staining. As to conditions: in vivo administration, focal cerebral ischemia model in the rat. The protocol:
Focal cerebral ischemia was produced by cauterization of the right distal MCA (middle cerebral artery) with bilateral temporary common carotid artery occlusion in male Long-Evans rats for 90 minutes. All procedures performed on the animals were approved by the University Institutional Animal Care and Use Committee of the University of Pennsylvania. A total of 42 rats (weights: 230-340 g) obtained from Charles River were used in this study. The animals fasted overnight with free access to water prior to the surgical procedure.
Two hours prior to MCA occlusion, varying amounts (control, n=14; 5 mg/kg, n=7; 10 mg/kg, n=7; 20 mg/kg, n=7; and 40 mg/kg, n=7) of the compound, 3,4-dihydro-5-[4-(1-piperidinyl)-butoxy]-1(2H)-isoquinolinone (“DPQ”) were dissolved in dimethyl sulfoxide (DMSO) using a sonicator. […]
Two hours after MCA occlusion, the animals were given the same doses of the PARP inhibitor as in the pre-treatment. […] To avoid artifacts due to edema, the-damaged area was calculated by subtracting the area of the normal tissue in the hemisphere ipsilateral to the stroke from the area of the hemisphere contralateral to the stroke, by the method of Swanson et al., “A Semiautomated Method for Measuring Brain Infarct Volume”, J. Cereb. […] The total volume of infarction was calculated by summation of the damaged volume of the brain slices.

For assay [6] the following is noted: in vivo; cited from earlier work.
[7] abbreviates: PARP inhibition, unit μM, read-out: Approximate IC50's.
The mark [8] stands for this setting: PARP inhibition, unit given as uM, read-out: Approximate IC50's.
The mark [9] stands for this setting: PARP inhibition, unit inferred, read-out: Approximate IC50's.

Like-named read-outs stand apart in the source and are kept apart here.

T1 sequence (P09874 whole entry): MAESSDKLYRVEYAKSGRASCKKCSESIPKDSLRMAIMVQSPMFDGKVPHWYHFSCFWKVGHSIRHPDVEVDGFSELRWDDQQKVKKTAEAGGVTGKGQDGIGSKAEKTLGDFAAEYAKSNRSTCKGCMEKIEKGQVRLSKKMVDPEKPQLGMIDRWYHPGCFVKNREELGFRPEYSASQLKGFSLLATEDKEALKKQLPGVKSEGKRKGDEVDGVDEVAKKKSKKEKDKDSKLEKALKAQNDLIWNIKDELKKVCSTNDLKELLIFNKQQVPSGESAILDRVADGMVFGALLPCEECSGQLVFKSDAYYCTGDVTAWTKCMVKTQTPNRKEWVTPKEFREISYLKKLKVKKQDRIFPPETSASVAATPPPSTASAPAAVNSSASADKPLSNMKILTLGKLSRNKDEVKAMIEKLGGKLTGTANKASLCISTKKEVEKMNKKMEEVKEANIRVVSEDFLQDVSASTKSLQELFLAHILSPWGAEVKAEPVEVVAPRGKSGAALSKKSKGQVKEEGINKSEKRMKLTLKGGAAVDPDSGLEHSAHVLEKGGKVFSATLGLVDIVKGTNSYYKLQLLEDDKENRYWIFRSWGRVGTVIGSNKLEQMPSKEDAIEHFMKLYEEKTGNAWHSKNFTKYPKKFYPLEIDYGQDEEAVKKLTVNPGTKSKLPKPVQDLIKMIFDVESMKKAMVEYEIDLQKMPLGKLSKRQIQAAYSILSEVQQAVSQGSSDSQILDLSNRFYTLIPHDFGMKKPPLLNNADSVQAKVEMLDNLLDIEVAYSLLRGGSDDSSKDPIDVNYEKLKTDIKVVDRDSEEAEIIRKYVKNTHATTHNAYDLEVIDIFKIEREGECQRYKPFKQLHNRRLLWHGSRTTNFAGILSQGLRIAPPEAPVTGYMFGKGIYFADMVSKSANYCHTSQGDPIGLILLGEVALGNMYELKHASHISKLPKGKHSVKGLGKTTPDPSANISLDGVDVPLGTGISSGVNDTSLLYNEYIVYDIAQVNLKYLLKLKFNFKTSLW

As a reminder, the IC50 is the midpoint of a concentration-inhibition curve. As to `Nc1ccc2c(c1)[nH]c(=O)c1ccccc12`, in assay [1] (setting [7]), the IC50 stood at 4 µM.

With `O=c1[nH]c2cc3ccccc3cc2c2ccccc12`, the IC50 in assay [1] (setting [7]) came out at 100 µM.

Consider `O=c1[nH]c2ccc([N+](=O)[O-])cc2c2ccccc12`, for which the IC50 in assay [1] (setting [7]) stood at 0.9 µM.

In the case of `O=c1[nH]c2ccccc2c2ccccc12`, the IC50 in assay [1] (setting [7]) amounted to 5.2 µM.

Consider `O=c1[nH]c2ccc(Cl)cc2c2ccccc12`, for which the IC50 in assay [1] (setting [7]) came to 0.7 µM.

As to `O=c1[nH]c2ccc(Br)cc2c2ccccc12`, the IC50 in assay [1] (setting [7]) stood at 1.1 µM.

Regarding `O=C1NCC([N+](=O)[O-])c2ccccc21` (stereo not shown), in assay [1] (setting [8]), the IC50 amounted to 1.6 µM.

In the case of `O=c1[nH]c(-c2ccccc2)cc2ccccc12`, the IC50 in assay [1] (setting [8]) stood at 1.3 µM.

`O=c1[nH]ccc2c([N+](=O)[O-])cccc12`: the IC50 in assay [1] (setting [8]) was determined as 3.4 µM.

For `O=c1[nH]c2cc(F)ccc2c2ccccc12`, the IC50 in assay [1] (setting [7]) was 0.2 µM.

Regarding `O=C1NCC2c3ccccc3Oc3cccc1c32` (stereo not shown), the IC50 in assay [1] (setting [9]) was 0.2 µM.

For `O=c1[nH]nc2c3c(cccc13)Oc1ccccc1-2`, the IC50 in assay [1] (setting [9]) was 0.08 µM.

Regarding `O=c1[nH]nc2c3c(cccc13)Sc1ccccc1-2`, in assay [1] (setting [9]), the concentration for half-maximal inhibition (IC50) was 0.11 µM.

For `O=c1[nH]nc2c3c(cccc13)-c1ccccc1-2`, the IC50 in assay [1] (setting [9]) stood at 0.14 µM.

In the case of `Nc1ccc2c(c1)-c1n[nH]c(=O)c3cccc-2c13`, the IC50 in assay [1] (setting [9]) came out at 0.068 µM.

Regarding `O=c1[nH]nc2c3c(cccc13)CCc1ccccc1-2`, in assay [1] (setting [9]), the IC50 stood at 0.4 µM.

Consider `O=c1[nH]nc2c3c(cccc13)-c1ccc([N+](=O)[O-])cc1-2`, for which, in assay [1] (setting [9]), the IC50 stood at 0.056 µM.

Take `O=c1[nH]nc2c3c(cccc13)Oc1ccc([N+](=O)[O-])cc1-2`: in assay [1] (setting [9]), the IC50 was found to be 0.062 µM.

Consider `Nc1ccc2c(c1)-c1n[nH]c(=O)c3cccc(c13)O2`, for which the IC50 in assay [1] (setting [9]) was found to be 0.046 µM.

As to `COC(=O)c1c[nH]c(=O)c2ccccc12`, the IC50 in assay [1] (setting [9]) came to 1.1 µM.

Consider `O=C1CNC(=O)c2cc(Cl)ccc2N1`, for which the IC50 in assay [1] (setting [9]) was 1.6 µM.

Take `O=c1[nH]nc(-c2ccc(Cl)cc2)c2ccccc12`: the IC50 in assay [1] (setting [9]) was found to be 0.36 µM.

As to `O=C1NCC(c2ccccc2)Oc2ccccc21` (stereo not shown), the IC50 in assay [1] (setting [9]) was 1.9 µM.

As for `O=c1[nH]cc(Br)c2c(O)cccc12`, in assay [1] (setting [9]), the IC50 was 0.6 µM.

Turning to `O=C1NCc2cccc3cccc1c23`, the IC50 in assay [1] worked out at 0.54 µM.

As to `Nc1ccc2c3c(cccc13)C(=O)NC2=O`, in assay [1], the IC50 was found to be 0.09 µM.

As for `O=C1NC(=O)c2ccc(S(=O)(=O)O)c3cccc1c23`, in assay [1] (setting [9]), the IC50 was found to be 4 µM.

`O=C1NC(=O)c2ccc(Cl)c3cccc1c23`: the IC50 in assay [1] (setting [9]) was 0.46 µM.

With `O=C1NC(=O)c2ccc(SCCO)c3cccc1c23`, the IC50 in assay [1] (setting [9]) came out at 2.8 µM.

On to `O=C1NC(=O)c2cc(O)cc3cccc1c23`, for which the IC50 in assay [1] (setting [9]) turned out to be 0.81 µM.

As for `O=C(O)c1cccc2[nH]c(=O)c3ccccc3c12`, the IC50 in assay [1] (setting [9]) was found to be 5.1 µM.

`O=c1[nH]c2cc([N+](=O)[O-])ccc2c2ccccc12`: the IC50 in assay [1] (setting [9]) turned out to be 0.16 µM.

As for `Nc1cccc2[nH]c(=O)c3ccccc3c12`, the IC50 in assay [1] (setting [9]) is 0.1 µM.

For `O=c1[nH]nc(-c2ccc(N3CCCCC3)c([N+](=O)[O-])c2)c2ccccc12`, in assay [1] (setting [9]), the IC50 turned out to be 0.3 µM.

`CN(C)c1ccc(-c2n[nH]c(=O)c3ccccc23)cc1[N+](=O)[O-]`: the IC50 in assay [1] (setting [9]) turned out to be 0.68 µM.

Turning to `CN(C)c1ccc(-c2n[nH]c(=O)c3ccccc23)cc1N`, in assay [1] (setting [9]), the IC50 is 0.22 µM.

For the molecule `O=c1[nH]nc(CN2CCN(c3ccccc3)CC2)c2ccccc12`, in assay [1] (setting [9]), the IC50 was 4 µM.

As for `O=c1[nH]nc(CN2CCN(c3ccc(Cl)cc3)CC2)c2ccccc12`, the IC50 in assay [1] (setting [9]) worked out at 1.3 µM.

For `Nc1cccc2c1[nH]c(=O)c1ccccc12`, the IC50 in assay [1] (setting [9]) stood at 0.76 µM.

Regarding `CN(C)c1ccc2c(c1)[nH]c(=O)c1ccccc12`, the IC50 in assay [1] (setting [9]) came out at 0.31 µM.

Consider `Oc1cccc2c(O)nccc12` [1,5-dihydroxyisoquinoline], for which the reduced infarct size in assay [2] (1 mg/kg single injection) is listed as 38-48%.

As for `NC(=O)c1cccc(N)c1` [Compound 3-AB, 3-aminobenzamide], the “effect on lifespan of the cells” value in assay [3] (10 uM) is given as “little or no effect”. Also, in assay [3] (100 uM), the “effect on lifespan of the cells” value is reported as “lengthen the lifespan of the cells”. Also, in assay [3] (1 mM), the “effect on lifespan and proliferative capacity of the cells” value is “dramatically increases the lifespan and proliferative capacity of the cells”; the “time in culture at which cells still divide” value is recorded as over 60 days. Also, the “reductions in infarct size in the heart” value in assay [2] (10 mg/kg single injection one minute before occlusion or before reperfusion) is given as 32-42%. Further, in assay [4], the “inflammatory response in colitis” value is “reduced the inflammatory response”.

With `O=C1NCCc2c(OCCCCN3CCCCC3)cccc21` [DPQ, 3,4-dihydro-5-[4-(1-piperidinyl)-butoxy]-1(2H)-isoquinolinone], the “effect on infarct volume, overall” value in assay [5] is “substantial reduction in infarct volume”.

Take `NC(=O)c1cccc2cccc(C(=O)O)c12` [drawing 17]: in assay [1] (setting [8]), the IC50 amounted to 0.25 µM.

On to `O=C1NCCc2c(OCCCCN3CCCCC3)cccc21` [drawing 52], for which the IC50 in assay [1] is 1.9 µM.

Regarding `NC(=O)c1cccc2cccc(C(=O)O)c12` [drawing 59], the IC50 in assay [1] (setting [9]) came out at 0.25 µM.

For the molecule `NC(=O)c1cccnc1` [nicotinamide], the “delayed, NO-mediated vascular failure in endotoxic shock” value in assay [6] was “protects against delayed, NO-mediated vascular failure”.
